Data from patent US12084451B2, “Compositions and methods for reducing tactile dysfunction, anxiety, and social impairment” (President and Fellows of Harvard College, priority 2018, dated 2024).
Values joined by “and” are separate entries in the source; they are usually repeats but may differ in a detail not shown here. Identical values can stand only once.

What was measured:
[1] = tested on: Mecp2, Shank3, and Fmr1 mutant mice; test: animal models of ASD; format: in vivo; conditions: three animal models of ASD (Mecp2, Shank3, and Fmr1 mutant mice)
Text: These findings raise the exciting possibility that GABAA receptor agonists, which attenuate the activity of peripheral mechanosensory neurons, may be useful for treating tactile hypersensitivity and thus anxiety and social impairments in ASD patients. Treating young children with GABAA receptor agonists has traditionally been avoided because of undesirable side effects of these drugs in children. Indeed, there is great reluctance on the part of physicians to use FDA-approved GABAA receptor agonists and positive allosteric modulators because of undesirable side effects, including sedation, and serious complications associated with interference with brain development. […] Importantly, peripherally-restricted GABAA receptor agonists should not promote undesirable side effects observed with all currently used, FDA-approved GABAA receptor agonists that act in the brain.

[2] = tested on: rodent models of neuropathic pain; test: rodent models of neuropathic pain; format: in vivo
Text: The utility of peripherally-restricted GABAA receptor PAMs, agonists are not limited to treatment of the above indications; the compounds disclosed herein are also useful for treating touch over-reactivity and pain associated with other disease states, including Sensory Processing Disorder (SPD) and fibromyalgia, as well as mechanical allodynia associated with nerve injury, shingles, diabetic neuropathy, chemotherapy-induced neuropathy and other neuropathic pain states.

[3] = tested on: GABAA targets; conditions: previous study (US034-0003415); cited from earlier work
[4] = target: T1, hGABAA α1β3γ2 (Homo sapiens, UniProt P14867+P18507+P28472); test: hGABAA IonFlux HT PAM Assay, α1β3γ2; format: cell-based
Text: Ligand-gated ion channels targeted were hGABAA α1β3γ2 and hGABAA α2β3γ2.
Electrophysiological assays conducted to profile nine (9) compounds for activities on the on channel targets listed above for Positive Allosteric Modulator (PAM) activities using the IonFlux HT electrophysiological platform.
The parameters measured are described in the Data Analysis section.
All wells included a final DMSO concentration of 0.33% including all control wells.
All recordings were obtained from a holding potential of −60 mV. The compound addition sequence that was used for all additions was the same for all assays. […] The process was repeated with the next ascending concentration of test compound (FIG. 1).
All data were first exported to an Excel compatible data file and then analyzed using Graph Pad Prism software.

[5] = tested on: SNL rats; test: Rat spinal nerve ligation (SNL) model of neuropathic pain, Von frey test; format: in vivo, SD Rat; conditions: 5 mpk IP; for Von frey test 50% g Threshold, group mean: N 8
Method: Chung surgery were conducted on anesthetized rats. Rats were habituated in the testing environment for 15 minutes before allodynia measurement (2-3 times). Pre-dose baseline were taken on day 9 post surgery. Rats that don't show allodynic response at this point were excluded. SNL rats with a paw withdrawal threshold >4 g. The animals were grouped according to 50% paw withdrawal threshold (g) and weight. The animals were dosed test articles and vehicle according to the dose protocol. On the testing day (Day 9), rats were dosed with testing articles with 16 min interval between groups. Rats were measured for allodynic response at 0.75, 1.5, 3 h time point post dosing. All values will be expressed as mean±S.E.M. The significance of the differences among groups will be evaluated by two-way ANOVA followed by Dunnett's test using graphpad Prism 6 software. A p value of less than 0.05 is considered statistically significant.

[6] = target: T1, hGABAA α1β3γ2; test: hGABAA α1β3γ2 IonFlux HT Agonist Assay; format: cell-based; conditions: for Normalized Percentage Activation Mean: normalized to EC100 GABA (30 μM)
Method: Ligand-gated ion channel targets were hGABAA α2β3γ2 and hGABAA α1β3γ2. Electrophysiological assays conducted to profile two compounds for agonist activities on hGABAA α2β3γ2 and seven compounds for agonist activities on hGABAA α1β3γ2 using the IonFlux HT electrophysiological platform.
The parameters measured are described in the Data Analysis section. […] Note: The test compounds was applied over two (2) ‘experimental patterns’ in increasing concentrations.
The supplied compound was prepared in DMSO to concentrations that were 300× the final assay concentrations. Aliquots were taken out and diluted 300× into external buffer to give the final assay concentration. At wells included a final DMSO concentration of 0.33% including all control wets.
All recordings were obtained from a holding potential of −60 mV. The compound addition sequence that was used for all additions was the same for all assays. […] Each test concentration of compound was applied for 2 seconds followed by 60 seconds wash. The process was repeated with the next ascending concentration of test compound. The test compounds were applied over two (2) ‘experimental patterns’ in increasing concentrations (FIG. 11).
AM data were first exported to an Excel compatible data file and then analyzed using Graph Pad Prism software.

T1 sequence (P14867 28-456): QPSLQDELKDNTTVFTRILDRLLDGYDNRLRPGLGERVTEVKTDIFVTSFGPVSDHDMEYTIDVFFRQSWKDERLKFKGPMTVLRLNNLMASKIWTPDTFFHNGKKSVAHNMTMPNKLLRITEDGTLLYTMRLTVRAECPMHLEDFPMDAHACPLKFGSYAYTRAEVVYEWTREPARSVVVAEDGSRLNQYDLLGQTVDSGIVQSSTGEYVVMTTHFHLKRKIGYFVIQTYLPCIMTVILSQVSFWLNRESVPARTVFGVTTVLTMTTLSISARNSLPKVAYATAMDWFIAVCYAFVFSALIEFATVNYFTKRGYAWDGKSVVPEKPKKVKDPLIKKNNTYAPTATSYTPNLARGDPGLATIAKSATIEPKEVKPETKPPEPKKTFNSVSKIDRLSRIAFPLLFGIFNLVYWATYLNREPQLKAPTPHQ
T1 sequence (P28472 26-473): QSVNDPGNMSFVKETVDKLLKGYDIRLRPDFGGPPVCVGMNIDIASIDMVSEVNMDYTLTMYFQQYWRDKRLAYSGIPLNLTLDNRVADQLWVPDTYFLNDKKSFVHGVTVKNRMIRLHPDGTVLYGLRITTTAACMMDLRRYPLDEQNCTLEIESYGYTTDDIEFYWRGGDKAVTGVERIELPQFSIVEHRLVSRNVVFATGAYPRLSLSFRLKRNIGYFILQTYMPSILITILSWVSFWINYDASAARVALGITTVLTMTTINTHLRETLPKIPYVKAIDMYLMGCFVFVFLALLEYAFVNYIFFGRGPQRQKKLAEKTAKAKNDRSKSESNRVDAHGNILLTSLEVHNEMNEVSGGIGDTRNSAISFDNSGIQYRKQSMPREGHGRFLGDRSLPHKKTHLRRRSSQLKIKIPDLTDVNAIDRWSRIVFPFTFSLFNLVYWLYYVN
T1 sequence (P18507 40-475): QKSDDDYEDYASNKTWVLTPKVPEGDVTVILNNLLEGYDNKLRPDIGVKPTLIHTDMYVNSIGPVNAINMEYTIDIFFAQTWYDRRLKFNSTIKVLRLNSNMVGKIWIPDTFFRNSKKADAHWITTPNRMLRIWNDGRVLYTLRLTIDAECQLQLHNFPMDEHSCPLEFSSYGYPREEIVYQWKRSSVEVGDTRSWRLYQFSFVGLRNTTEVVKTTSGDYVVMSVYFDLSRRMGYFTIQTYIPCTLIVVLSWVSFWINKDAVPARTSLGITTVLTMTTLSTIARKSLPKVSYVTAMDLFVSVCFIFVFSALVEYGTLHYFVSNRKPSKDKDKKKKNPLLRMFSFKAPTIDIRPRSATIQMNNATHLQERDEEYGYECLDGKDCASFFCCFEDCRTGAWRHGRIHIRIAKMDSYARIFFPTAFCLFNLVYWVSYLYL

## O=C(O)C1=CCNCC1 [Isoguvacine]
[1]
  effect on tactile hypersensitivity, anxiety-like behaviors and social impairments: improves tactile hypersensitivity, anxiety-like behaviors and social impairments
[2]
  effect on tactile over-reactivity (mechanical allodynia): reduces tactile over-reactivity (mechanical allodynia)
[3]
  agonist activity against GABAA targets: exhibited agonist activity
[4]; 0.001 μM + EC20 GABA
  (%) Control mean: 103.6 % Control
  (%) Control n1: 99.0 % Control
  (%) Control n2: 108.2 % Control
[4]; 0.01 μM + EC20 GABA
  (%) Control mean: 109.8 % Control
  (%) Control n1: 108.8 % Control
  (%) Control n2: 110.8 % Control
[4]; 0.1 μM + EC20 GABA
  (%) Control mean: 113.7 % Control
  (%) Control n1: 110.0 % Control
  (%) Control n2: 117.4 % Control
[4]; 1 μM + EC20 GABA
  (%) Control mean: 119.8 % Control
  (%) Control n1: 124.5 % Control
  (%) Control n2: 115.2 % Control
[4]; 10 μM + EC20 GABA
  (%) Control mean: 73.0 % Control
  (%) Control n1: 76.1 % Control
  (%) Control n2: 69.9 % Control
[4]; 100 μM + EC20 GABA
  (%) Control mean: 8.0 % Control
  (%) Control n1: 7.6 % Control
  (%) Control n2: 8.3 % Control
[4]; normalized to baseline peak current induced by EC20 GABA (1 μM) for 2 seconds
  Mean Maximal Effect (% of Control): 120 % of Control
[4]; positive modulation of EC20 GABA current
  Estimated EC50: n/c*
[5]; 0 Hour (pre-dose baseline), 5 mg/kg
  Von frey test 50% g Threshold, group mean: 2.32 g and 2.3 ± 0.33 g
[5]; 0 Hour (pre-dose baseline, day 9 post surgery), 5 mg/kg
  50% g Threshold, individual animal: 0.99 g and 1.10 g and 1.85 g and 2.23 g and 2.81 g and 3.00 g and 3.31 g (2×)
[5]; 0.75 Hour post dosing, 5 mg/kg
  50% g Threshold, individual animal: 1.31 g (2×) and 2.37 g (2×) and 2.81 g and 1.56 g (2×) and 0.99 g
[5]; 0.75 Hour, 5 mg/kg
  Von frey test 50% g Threshold, group mean: 1.78 g and 1.8 ± 0.23 g
[5]; 1.5 Hour post dosing, 5 mg/kg
  50% g Threshold, individual animal: 1.85 g (3×) and 2.37 g and 0.82 g and 2.81 g and 1.56 g and 2.64 g
[5]; 1.5 Hour, 5 mg/kg
  Von frey test 50% g Threshold, group mean: 1.97 g and 2.0 ± 0.23 g
[5]; 3 Hour post dosing, 5 mg/kg
  50% g Threshold, individual animal: 2.81 g and 6.74 g and 7.91 g and 3.33 g and 5.15 g and 4.34 g and 5.77 g and 3.31 g
[5]; 3 Hour
  Von frey test 50% g Threshold, group mean: 4.9 ± 0.64 g
[5]; 3 hour time point
  analgesia effect: significant analgesia effect
[6]; 0.3 μM
  Normalized Percentage Activation Mean: 1.61%
[6]; 1 μM
  Normalized Percentage Activation Mean: 2.18%
[6]; 3 μM
  Normalized Percentage Activation Mean: 6.83%
[6]; 10 μM
  Normalized Percentage Activation Mean: 30.46%
[6]; 30 μM
  Normalized Percentage Activation Mean: 65.63%
[6]; 100 μM
  Normalized Percentage Activation Mean: 84.77%
[6]; 300 μM
  Normalized Percentage Activation Mean: 92.72%
[6]; 10000 μM
  Normalized Percentage Activation Mean: 93.46%
[6]; agonist activation of channel currents, read-out: Estimated EC50
  EC50: 19.7 µM
